These are literature values, as cited in patent publication US20070196901A1, “Kahalalide-producing bacteria” (priority 2003, published 2007).

Series [1] has as its system HIV-1. The following applies: read-out: HIV-1 EC50; antiviral.
For series [2], the system named is prostate cancer.
In series [3] the test system is M. tuberculosis.
For series [4], the system named is AIDS-opportunistic infection pathogens. The following applies: against AIDS-opportunistic infection pathogens, compared with reference drugs.

For the substance kahalalide F [KF], the 50% effective concentration (EC50) in series [1] is 14.2 µM. Further, in series [2], the “efficacy in clinical trials against prostate cancer” value is listed as “effective”. Further, the “inhibition of M. tuberculosis” value in series [3] is “moderately inhibitory”. The antifungal activity result in series [4] was “comparable to the activity of the drugs Amphotericin B and Ketoconazole/Rifampin”.

As a reminder, the EC50 is the concentration giving half of the maximal effect.
